The values below are quoted from earlier work in article PMC5381245 (Theranostics, 2017).

The series relates to tumor. The following applies: 2 h p.i.

For “^111In-DOTA-Nle-CycMSHhex (sidechain bridge or staple)”, the tumor uptake is on record as 19.4 ± 1.7 %ID/g and the tumor-to-kidneys uptake ratio is 2.0.

Turning to “NOTA-GlyGly-Nle-CycMSHhex (sidechain bridge or staple) [^64Cu-labeled NOTA-GlyGly-Nle-CycMSHhex]”, the tumor uptake was 13.4 ± 1.6 %ID/g.

On to “^111In-DOTA-GlyGly-Nle-CycMSHhex (sidechain bridge or staple)”, for which the tumor-to-kidney uptake ratio is recorded as 2.8.
